Source: patent US9492405B2, “Use of fenoterol and fenoterol analogues in the treatment of glioblastomas and astrocytomas” (The United States of America, as represented by the …, priority 2010, dated 2016)
Several values for one entry are separate records, joined by “and”; a condition that tells them apart may be missing. Equal entries are not always repeated.

Assays:
[1] = Brain-to-plasma distribution of [3H]-(R,R)-methoxyfenoterol after single IV dose; assay type: in vivo; settings: rat, IV
Description: An overview of the research study design for evaluating the brain-to-plasma distribution of [^3H]
(specific activity 57 Ci/mmol); vehicle was sterile saline, 0.9% sodium chloride, USP. Dose formulations were prepared on the day of the study. The amount of radioactivity in the dose formulation was determined by liquid scintillation. The study lasted for an hour and radioactivity levels in plasma and brain tissue were evaluated at the conclusion of the study. Approximately 5 mls of whole blood was collected. Blood samples were collected via cardiac puncture, transferred into a tube containing K3EDTA as the anticoagulant and kept on wet ice until processed to plasma. To generate plasma, samples were centrifuged within 15 minutes of collection at 2,500 RPM for 15 minutes at room temperature. Plasma was divided equally into three labeled cryovials and stored on ample dry ice until transferred to a freezer set at ≦−20° C. for storage until analysis. Duplicate aliquots were weighed and then combined with scintillation cocktail. The [^3H] radioactivity was determined on a liquid scintillation counter. Brain samples were snap frozen in liquid nitrogen and stored at ≦−70° C. until analysis. Whole brain tissue was homogenized and the weight of the homogenate was determined. Duplicate aliquots from the homogenate were weighed, solubilized and then combined with scintillation cocktail. The [^3H] radioactivity was determined on a liquid scintillation counter.

[2] = in vivo; settings: rat, IV 5 mg/kg
Description: Dose calculations (mg/kg) were based on the individual body weight measured on the day of treatment. Study duration for pharmacokinetic studies was 6 hours. […] Urine was collected for 0-6 hours and 6 to 24 hours from 3 rats in each treatment group.
In the two-compartment model, the drug distributes into two compartments, the central compartment and the tissue, or peripheral compartment. The central compartment represents the blood, extracellular fluid, and highly perfused tissues. The drug distributes rapidly and uniformly in the central compartment. A second compartment, known as the tissue or peripheral compartment, contains tissues in which the drug equilibrates more slowly. Drug transfer between the two compartments is assumed to take place by first-order processes.
The following abbreviations are utilized in Table 4 below: alpha—macro rate constant associated with the distribution phase; beta—macro rate constant associated with the elimination phase; A, B—zero time intercept associated with the alpha phase and beta phase, respectively; AUC—area under the curve; T1/2 (K10)—half-life associated with the rate constant K10; K10—elimination rate—rate at which the drug leaves the system from the central compartment; K12—rate at which drug enters tissue compartment from the central compartment; K21—rate at which drug enters central compartment from tissue compartment; V1—volume of distribution of the central compartment; V2—volume of distribution of the tissue compartment; Vss—volume of distribution at steady state; and Cl—clearance.

[3] = test system: 1321N1 xenograft; test: 1321N1 xenograft implanted in the flank of SKID mice; assay type: in vivo; settings: IP twice a day; day 3-10 30 mg/kg/day, day 10-42 50 mg/kg/day
[4] = test system: 1321N1 cells; test: Cell cycle distribution by flow cytometry in 1321N1 cells; settings: 1321N1 cells
[5] = target: β2-AR (Homo sapiens (Human), UniProt P07550); settings: 1321N1; basal below 0.5 nmol/mg protein
Sequence of β2-AR (P07550 whole entry): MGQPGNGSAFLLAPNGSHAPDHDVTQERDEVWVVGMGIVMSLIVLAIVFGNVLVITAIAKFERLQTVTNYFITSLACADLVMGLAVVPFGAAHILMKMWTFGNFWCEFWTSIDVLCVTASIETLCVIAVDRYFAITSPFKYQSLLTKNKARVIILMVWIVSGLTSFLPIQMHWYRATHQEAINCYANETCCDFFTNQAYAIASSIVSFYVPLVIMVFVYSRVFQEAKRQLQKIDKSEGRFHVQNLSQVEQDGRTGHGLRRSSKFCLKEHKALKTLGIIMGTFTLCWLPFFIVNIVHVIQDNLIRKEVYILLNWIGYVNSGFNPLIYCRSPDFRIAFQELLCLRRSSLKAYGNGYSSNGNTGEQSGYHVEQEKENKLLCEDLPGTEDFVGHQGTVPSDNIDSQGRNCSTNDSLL

Compound: COc1ccc(C[C@@H](C)NC[C@H](O)c2cc(O)cc(O)c2)cc1.O=C(O)/C=C/C(=O)O [(R,R)-2, (R,R)-(−)-1-p-Methoxyphenyl-2-(β-3′,5′-dihydroxy-phenyl-β-oxy)ethylaminopropane Fumarate]
- passage through the blood brain barrier [1]: capable of passing through the blood brain barrier
- AUC [2]: 96.1011 µg·min/mL
- Cl [2]: 15.40 mL/min
- K12 [2]: 0.1309 min⁻¹
- K21 [2]: 0.0203 min⁻¹
- T1/2 (K10) [2]: 13.23 min
- Vss [2]: 2189.02 mL
- Plasma concentration, Average ([2]; 5 min): 2120 ng/mL
- Plasma concentration, Average ([2]; 15 min): 580 ng/mL
- Plasma concentration, Average ([2]; 30 min): 410 ng/mL
- Plasma concentration, Average ([2]; 60 min): 260 ng/mL
- Plasma concentration, Average ([2]; 120 min): 170 ng/mL
- Plasma concentration, Average ([2]; 240 min): 120 ng/mL
- Plasma concentration, Average ([2]; 300 min): 70 ng/mL
- Individual plasma concentration ([2]; 300 min, individual rats, listed as (R,R)-methoxyfenoterol): 0.06 ug/ml and 0.07 ug/ml (3×) and 0.09 ug/ml
- Plasma concentration, Average ([2]; 360 min): 60 ng/mL
- V1 ([2]; central compartment): 294.01 mL
- K10 ([2]; elimination rate): 0.0524 min⁻¹
- V2 ([2]; tissue compartment): 1895.00 mL
- Alpha ([2]; two-compartment open model): 0.1982 min⁻¹
- Beta ([2]; two-compartment open model): 0.0054 min⁻¹
- A ([2]; two-compartment open model, zero time intercept alpha phase): 4.6437 µg/mL
- B ([2]; zero time intercept beta phase): 0.3900 µg/mL
- growth of 1321N1 xenograft [3]: inhibits astrocytoma growth in vivo

Compound: C=C[C@@]1(C)CC(=O)[C@]2(O)[C@@]3(C)[C@@H](O)CCC(C)(C)[C@@H]3[C@H](O)[C@H](OC(C)=O)[C@@]2(C)O1 [forskolin, reference compound]
- cell cycle arrest [4]: induced cell cycle arrest in G1 phase
- intracellular concentration of cAMP after treatment [5]: ~4 nmol/mg protein
